Test results from patent US9334246B2, “Substituted triazines for malaria treatment and chemoprophylaxis” (The United States of America, as represented by the …, priority 2013, dated 2016).

Key:
Format in all cases: cell-based, Plasmodium falciparum
[1] = tested on: P. falciparum W2; experiment: Malaria SYBR Green Fluorescence Assay, W2 strain
[2] = tested on: P. falciparum C235; experiment: Malaria SYBR Green Fluorescence Assay, C235 strain
[3] = tested on: P. falciparum D6; experiment: Malaria SYBR Green Fluorescence Assay, D6 strain

| SMILES | W2 (SYBR Green Assay IC50) [1] [µg/mL] | C235 (SYBR Green Assay IC50) [2] [µg/mL] | D6 (SYBR Green Assay IC50) [3] [µg/mL] |
| --- | --- | --- | --- |
| CC(C)N1CCC(CNc2nc(-c3ccc(-c4ccccc4)cc3)nc(C(Cl)(Cl)Cl)n2)CC1 [Cmpd 496] | 0.015 | 0.014 | 0.029 |
| CC(C)N1CCC(CNc2nc(-c3ccccc3[N+](=O)[O-])nc(C(Cl)(Cl)Cl)n2)CC1 [Cmpd 497] | 0.176 | 0.469 | 0.913 |
| COc1ccc(-c2nc(NCC3CCN(C(C)C)CC3)nc(C(Cl)(Cl)Cl)n2)c2ccccc12 [Cmpd 498] | 0.066 | 0.125 | 0.247 |
| COc1ccc(-c2nc(NCC3CCN(C(C)C)CC3)nc(C(Cl)(Cl)Cl)n2)cc1OC [Cmpd 501] | 0.094 | 0.241 | 0.362 |
| COc1cc(OC)cc(-c2nc(NCC3CCN(C(C)C)CC3)nc(C(Cl)(Cl)Cl)n2)c1 [Cmpd 502] | 0.028 | 0.052 | 0.127 |
| Cc1ccc(-c2nc(NCC3CCN(C)CC3)nc(C(Cl)(Cl)Cl)n2)cc1 [Cmpd 503] | 0.014 | 0.026 | 0.044 |
| CN1CCC(CNc2nc(-c3ccc(Cl)c(Cl)c3)nc(C(Cl)(Cl)Cl)n2)CC1 [Cmpd 505] | 0.017 | 0.02 | 0.029 |
| CN1CCC(CNc2nc(-c3ccc(C(C)(C)C)cc3)nc(C(Cl)(Cl)Cl)n2)CC1 [Cmpd 507] | 0.039 | 0.043 | 0.043 |
| CN1CCC(CNc2nc(-c3cccc(C(F)(F)F)c3)nc(C(Cl)(Cl)Cl)n2)CC1 [Cmpd 508] | 0.013 | 0.022 | 0.034 |
| CSc1ccc(-c2nc(NCC3CCN(C)CC3)nc(C(Cl)(Cl)Cl)n2)cc1 [Cmpd 509] | 0.098 | 0.167 | 0.294 |
| CN1CCC(CNc2nc(-c3ccc(S(C)(=O)=O)cc3)nc(C(Cl)(Cl)Cl)n2)CC1 [Cmpd 510] | 0.088 | 0.273 | 0.416 |
| CN1CCC(CNc2nc(-c3ccc(C(Cl)(Cl)Cl)cc3)nc(C(Cl)(Cl)Cl)n2)CC1 [Cmpd 511] | 0.034 | 0.056 | 0.077 |
| CN1CCC(CNc2nc(-c3ccccc3)nc(C(Cl)(Cl)Cl)n2)CC1 [Cmpd 512] | 0.03 | 0.057 | 0.103 |
| CN1CCC(CNc2nc(-c3cc(Cl)cc(Cl)c3)nc(C(Cl)(Cl)Cl)n2)CC1 [Cmpd 514] | 0.026 | 0.028 | 0.079 |
| CN1CCC(CNc2nc(-c3ccccc3[N+](=O)[O-])nc(C(Cl)(Cl)Cl)n2)CC1 [Cmpd 516] | 0.083 | 0.181 | 0.292 |
| COc1ccc(-c2nc(NCC3CCN(C)CC3)nc(C(Cl)(Cl)Cl)n2)c2ccccc12 [Cmpd 517] | 0.007 | 0.012 | 0.023 |
| COc1ccc(-c2nc(NCC3CCN(C)CC3)nc(C(Cl)(Cl)Cl)n2)cc1OC [Cmpd 520] | 0.019 | 0.045 | 0.082 |
| COc1cc(OC)cc(-c2nc(NCC3CCN(C)CC3)nc(C(Cl)(Cl)Cl)n2)c1 [Cmpd 521] | 0.014 | 0.023 | 0.045 |
| CN1CCCC1CCNc1nc(-c2ccccc2[N+](=O)[O-])nc(C(Cl)(Cl)Cl)n1 (stereo not drawn) [Cmpd 524] | 0.028 | 0.07 | 0.108 |
| COc1cc(OC)cc(-c2nc(N3CCCNCC3)nc(C(Cl)(Cl)Cl)n2)c1 [Cmpd 525] | 0.033 | 0.041 | 0.043 |
| COc1cc(OC)cc(-c2nc(NC3CC(C)(C)NC(C)(C)C3)nc(C(Cl)(Cl)Cl)n2)c1 [Cmpd 527] | 0.021 | 0.024 | 0.026 |
| CCN1CCCC(Nc2nc(-c3cc(OC)cc(OC)c3)nc(C(Cl)(Cl)Cl)n2)C1 (stereo not drawn) [Cmpd 528] | 0.023 | 0.033 | 0.035 |
| COc1cc(OC)cc(-c2nc(NCC3(N)CCOCC3)nc(C(Cl)(Cl)Cl)n2)c1 [Cmpd 529] | 0.055 | 0.055 | 0.059 |
| COc1cc(OC)cc(-c2nc(NCC3(N)CCCC3)nc(C(Cl)(Cl)Cl)n2)c1 [Cmpd 530] | 0.014 | 0.013 | 0.013 |
| FC(F)(F)c1cccc(-c2nc(NCCc3cnccn3)nc(C(Cl)(Cl)Cl)n2)c1 [Cmpd 539] | 0.098 | 0.27 | 0.325 |
| ClC(Cl)(Cl)c1nc(NCCc2cnccn2)nc(-c2ccccc2)n1 [Cmpd 540] | 0.088 | 0.213 | 0.151 |
| CC1(C)C=Cc2cc(-c3nc(NCCc4cnccn4)nc(C(Cl)(Cl)Cl)n3)ccc2O1 [Cmpd 545] | 0.147 | 0.3 | 0.338 |
| CN1CCCN(c2nc(-c3ccccc3[N+](=O)[O-])nc(C(Cl)(Cl)Cl)n2)CC1 [Cmpd 548] | 0.053 | 0.07 | 0.069 |
